From the NIST ThermoML archive (doi:10.1016/j.jct.2014.04.011)
± gives the expanded uncertainty stated by the source.

How the values were obtained:
[1] = Crystal; DTA
[2] = Molar enthalpy of transition or fusion; conditions: Crystal; DSC

Triple point temperature [1]: 372 ± 0.7 K
Molar enthalpy of transition or fusion [2]: 6.93 ± 0.239 kcal/mol
SMILES: CC(C)(C)C(=O)C(Oc1ccc(Cl)cc1)n1ccnc1 (configuration not stated) [1-(4-Chlorophenoxy)-1-(imidazol-1-yl)-3,3-dimethylbutanone]
